Test systems include Klebsiella aerogenes; Providencia stuartii; Acinetobacter sp.; Proteus mirabilis; Klebsiella sp.; Pseudomonas aeruginosa 9; Bacillus subtilis C626; Escherichia coli O157:H7; Bacillus cereus; Listeria innocua; Streptococcus uberis; Leuconostoc lactis; Micrococcus luteus; Pasteurella multocida; Escherichia coli; Staphylococcus aureus.
Holding throughout (assay): ≥ marks a high value that may be exact or a test limit, other limits are often not marked, values filed in µg/mL are converted to µM
Assay [1] deals with Staphylococcus aureus NCTC 10571.
The test system of assay [2] is Escherichia coli NCTC 8007.
Assay [3] has as its system Escherichia coli NCTC 10418.
Assay [4] concerns Pseudomonas aeruginosa 198.
For assay [5], the system named is Staphylococcus aureus ATCC 25923.
Assay [6] relates to Enterococcus faecalis ATCC 29212.
Assay [7] has as its system Stenotrophomonas maltophilia ATCC 13637.
For assay [8], the system named is Staphylococcus aureus C622.
In assay [9] the test system is Pseudomonas aeruginosa PAO1 H103.
Assay [10] relates to Pseudomonas aeruginosa H1001.
In assay [11] the test system is Candida albicans ATCC 64550.
Assay [12] concerns Pseudomonas aeruginosa 213.
The subject of assay [13] is Pseudomonas aeruginosa H1030.
The test system of assay [14] is Enterococcus faecium t62764.
Assay [15] has as its system Klebsiella pneumoniae ESBL 63575.
The test system of assay [16] is Enterococcus faecalis W61950.
Assay [17] has as its system Pseudomonas aeruginosa H1027.
Assay [18] concerns Klebsiella pneumoniae ESBL 61962.
Assay [19] relates to Enterobacter cloacae 218R.
The subject of assay [20] is Staphylococcus aureus C623.
For assay [21], the system named is Enterococcus faecium mic80.
The subject of assay [22] is Acinetobacter baumannii ATCC 17978.
Assay [23] has as its system Escherichia coli ESBL 63103.
Assay [24] concerns Escherichia coli ESBL 64771.
In assay [25] the test system is Pseudomonas aeruginosa LES400.
Assay [26] concerns Enterococcus faecalis f43559.
Assay [27] has as its system Streptococcus pneumoniae ATCC 49619.
Assay [28] deals with Candida glabrata ATCC 15126.
Assay [29] deals with Candida albicans ATCC 10231.
The test system of assay [30] is Enterococcus faecalis PCM 2673.
Assay [31] has as its system Staphylococcus aureus ATCC 9144.
Assay [32] relates to Escherichia coli ATCC 25922.
Assay [33] deals with Staphylococcus epidermidis.
Assay [34] concerns Escherichia coli ATCC 23506.
Assay [35] concerns Klebsiella pneumoniae ATCC 700603.
Assay [36] has as its system Pseudomonas aeruginosa ATCC 9027.
Assay [37] relates to Aspergillus niger ATCC 16404.

Structures are written as SMILES. ≈ marks a conversion by molar mass, not a printed value.

As to `CSCC[C@H](NC(=O)[C@H](CC(N)=O)NC(=O)[C@H](CCCN=C(N)N)NC(=O)[C@H](CCC(N)=O)NC(=O)[C@H](Cc1c[nH]c2ccccc12)NC(=O)[C@H](CCC(N)=O)NC(=O)[C@@H](N)Cc1ccccc1)C(=O)N[C@@H](CCCN=C(N)N)C(=O)N[C@@H](CCCCN)C(=O)N[C@H](C(=O)N[C@@H](CCCN=C(N)N)C(=O)O)C(C)C` [FQWQRNMRKVR], the MIC in [1] was 14 µM (≈ 21.7 µg/mL); in the assay on Klebsiella aerogenes, at least 290 µM; in [2], at least 290 µM; against Providencia stuartii, at least 1000 µM; against Acinetobacter sp. it was 0.86 µM (≈ 1.33 µg/mL); in assay [3] it was at least 579 µM. Also, the values for the MIC against Proteus mirabilis and in the assay with Klebsiella sp. were at least 1000 µM and at least 290 µM, respectively.
As for `CC[C@H](C)[C@H](NC(=O)[C@H](Cc1c[nH]c2ccccc12)NC(=O)[C@H](CCCCN)NC(=O)[C@H](Cc1c[nH]c2ccccc12)NC(=O)[C@H](Cc1c[nH]c2ccccc12)NC(=O)[C@H](CCCNC(=N)N)NC(=O)[C@@H](N)CCCCN)C(=O)N[C@@H](CCCNC(=N)N)C(=O)N[C@@H](Cc1c[nH]c2ccccc12)C(=O)O` [KRWWKWIRW], the MIC worked out at 1.5 µM (≈ 2.17 µg/mL) in [4]; 5.9 µM (≈ 8.52 µg/mL) in the assay with Pseudomonas aeruginosa 9; 3 µM (≈ 4.33 µg/mL) in assay [5]; 12 µM (≈ 17.3 µg/mL) in assay [6]; 0.4 µM (≈ 0.578 µg/mL) in assay [7]; 5 µM (≈ 7.22 µg/mL) in assay [8]. The MIC is 0.8 µM (≈ 1.16 µg/mL) in assay [9]; 0.554 µM (≈ 0.8 µg/mL) in [10]; at least 100 µM in assay [11]; 3 µM (≈ 4.33 µg/mL) in assay [12]; 3 µM (≈ 4.33 µg/mL) in assay [13]; 20 µM (≈ 28.9 µg/mL) against Bacillus subtilis C626. Further, the MIC in assay [14] was 1.5 µM (≈ 2.17 µg/mL); in assay [15], 6.2 µM (≈ 8.96 µg/mL); in assay [16] it was at least 99 µM; in assay [17], 0.8 µM (≈ 1.16 µg/mL); in [18], 25 µM (≈ 36.1 µg/mL); in assay [19] it was 3 µM (≈ 4.33 µg/mL). In addition, the MIC was determined as 1.5 µM (≈ 2.17 µg/mL) in [20]; 3.1 µM (≈ 4.48 µg/mL) in [21]; 5 µM (≈ 7.22 µg/mL) in [22]; 1.25 µM (≈ 1.81 µg/mL) with Escherichia coli O157:H7; 1.5 µM (≈ 2.17 µg/mL) in assay [23]; 1.5 µM (≈ 2.17 µg/mL) in assay [24]. Moreover, the minimum inhibitory concentration (MIC) is 5.9 µM (≈ 8.52 µg/mL) in assay [25] and at least 49 µM in [26].
For the compound `CC[C@H](C)[C@H](NC(=O)CNC(=O)CNC(=O)[C@@H](N)CC(C)C)C(=O)N[C@H](C(=O)N[C@@H](CO)C(=O)N[C@@H](C)C(=O)N[C@H](C(=O)N[C@@H](CCCCN)C(=O)N[C@@H](CCCCN)C(=O)N[C@H](C(=O)N[C@H](C(=O)N[C@@H](CC(=O)O)C(=O)N[C@@H](Cc1ccccc1)C(=O)N[C@@H](CC(C)C)C(=O)NCC(N)=O)C(C)C)[C@@H](C)CC)C(C)C)C(C)C` [LGGIVSAVKKIVDFLG], the MIC in [27] is at least 79.2 µM; in assay [28] it was at least 158 µM; in assay [29], 79.2 µM (≈ 128 µg/mL); in assay [5], 39.6 µM (≈ 64 µg/mL); in the assay on Bacillus cereus it was at least 61.9 µM; in the assay with Listeria innocua it was at least 61.9 µM. Moreover, the MIC in assay [30] was at least 79.2 µM; against Streptococcus uberis, 30.9 µM (≈ 50 µg/mL); in [31] it was at least 39.6 µM; in assay [32] it was 39.6 µM (≈ 64 µg/mL); in assay [33], at least 61.9 µM; in assay [34], at least 79.2 µM. Also, the MIC in [35] is 19.8 µM (≈ 32 µg/mL); in assay [36], over 158 µM; against Leuconostoc lactis, 7.43 µM (≈ 12 µg/mL); against Micrococcus luteus it was at least 61.9 µM; in the assay with Pasteurella multocida, at least 61.9 µM; against Escherichia coli it was over 61.9 µM. Moreover, the values for the MIC (in the assay on Staphylococcus aureus; in assay [37]) were 30.9 µM (≈ 50 µg/mL) and at least 158 µM, respectively.

Broadly, the MIC is the smallest concentration in the dilution series that meets the test's criterion for growth inhibition. Higher therefore signals a need for much substance.

For the origin of these results see DBAASP.
